# Measured values published in patent US11001615B2, “Mutated tau protein fragment and use thereof” (ADEL INC., priority 2016, dated 2021).
# Ends that are not written are not given here.
# System: Tau-P301L dementia mice
# Assay: Vertical grid test
# Type: in vivo
# Settings: normal mice 10 or shorter, Tau-P301L 5 or shorter
# Method: JNPL3 mice expressing Tau-P301L mutant gene were purchased from Taconic, and back-crossed with C57bl/6 mice for five generations in the experimental animal room of the Asan Institute for Life Sciences. Then, the mice were raised under a specific pathogen free (SPE) condition. For active immunization, the mice were administered, for six months starting from three months after birth at intervals of two weeks, two weeks, four weeks, four weeks, five weeks, four weeks, and one week in this order, the four modified tau protein fragments prepared in Preparation Example 1 together with keyhole limpet hemocyanin (KLH) as a carrier and an aluminum adjuvant. At this time, administration was carried out through intraperitoneal injection (IP injection). The dementia mice which were actively immunized by administration of the K280-ac fragment were designated as Tau-P301L-K280-ac.
# A vertical grid test was performed on the mice raised in Preparation Example 2. […] Specifically, the mice were placed on the vertical grid device, and allowed to go up and down the vertical grid. The time until the mice dropped down from the grid was measured.
substance,measurement,value
Val-Gln-Ile-Ile-Asn-Lys-Lys-Leu-Asp-Leu-Ser-Asn (VQIINK(Ac)KLDLSN) [K280-ac],measured time on the vertical grid,10 s
